Test results as given in US20110129504A1, “COMPOSITION FOR CONTROLLING LIPASE CATALYZED REACTIONS” (NESTEC S.A., priority 2007, published 2011).

How the values were obtained:
[1] = molecular target: T1, Rhizomucor miehei lipase (Rhizomucor miehei, UniProt P19515); assay: Biphasic decane/buffer system: lipolytic hydrolysis of p-nitrophenylpalmitate; assay type: biochemical; conditions: monoglyceride 1.3 E-3 M in decane, p-nitrophenylpalmitate 2E-4M, phosphate buffer pH 5.5, 3,3 E-6 M lipase; 410 nm; vs reference without surfactant
T1 sequence (P19515 95-363): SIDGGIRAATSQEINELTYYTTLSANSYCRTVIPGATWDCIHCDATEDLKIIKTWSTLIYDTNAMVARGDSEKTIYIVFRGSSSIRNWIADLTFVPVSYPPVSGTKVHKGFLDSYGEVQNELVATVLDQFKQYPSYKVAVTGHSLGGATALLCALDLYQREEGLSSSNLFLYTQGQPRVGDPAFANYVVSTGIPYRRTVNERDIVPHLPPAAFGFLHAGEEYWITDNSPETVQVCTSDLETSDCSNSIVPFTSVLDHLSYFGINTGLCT
Method: (§1) A biphasic system was prepared in glass test tubes with the following composition: • Upper oil phase is composed of 7 ml decane in the absence (control) or presence of (1,3 E-3M) monoglyceride and 20 ul tricaprylin or p-nitrophenypalmitate (2E-4M) • Aqueous phase is composed of 2 ml phosphate buffer, pH 5.5 containing 3,3 E-6 M Rhizomucor miehei lipase. The caprylic acid generation in the presence and absence of monoglycerides (surfactant) is monitored by GC-FID. 100 ul of the upper oil phase are taken and added to 900 ul Chloroform before direct injection into the GC. The nitrophenol generation is followed by spectroscopic analysis at 410 nm of the aqueous phase. FIGS. 7 and 8 show the amount of caprylic acid formed after the lipolytic hydrolysis of the p-nitropheylpalmitate and tricaprylin in the presence of Sn1 (hydrolysable surfactants) or Sn2 (non-hydrolysable) monoglycerides. […] This is an indication that with the used monoglyceride concentration (the concentration was constant at 1.3 E-3 M) not enough surfactant is adsorbing to the water-oil interface, since the Sn2M20:4 is too lipohilic and partitions more into the bulk oil than to the interface.

[2] = molecular target: T1, Rhizomucor miehei lipase; assay: Biphasic decane/buffer system: lipolytic hydrolysis of tricaprylin; assay type: biochemical; conditions: monoglyceride 1,3 E-3M in decane, 20 ul tricaprylin, phosphate buffer pH 5.5, 3,3 E-6 M lipase; vs no surfactant; GC-FID
Method: as §1

[3] = test system: lipase; assay: TIM gastro-intestinal model (TNO) digestion of Tricaprylin emulsion; assay type: biochemical
Method: 8 ml Tricaprylin containing 2.0 g Sn2-Monopalmitin (non-cleavable surfactant) was mixed with 200 ml phosphate buffer pH 5.5 and 20 mg/ml starch (emulsifier) using an Ultra Turrax for 2 minutes, and subsequent sonification for 10 minutes. The reference emulsion system contains the same amount of tricaprylin and starch, however, no Sn2-monopalmitin. Model digestion runs of the 2 samples were performed using a gastro-intestinal model system provided by TNO. Physiological conditions (e.g. temperature, enzyme type and load, bile salt concentration, pH) were predefined via the TIM programming system. The hydrolysis of Tricaprylin was followed by monitoring the caprylic acid release after passing the different gastro-intestinal compartments. […] The extraction of the generated fatty acids after passing the different compartments was performed by taking 100 ul of the reaction mixture, adding 900 ul chloroform together with 100 ul Chloridric acid 1M. The samples were vortexed and centrifuged at 5000 rpm for 10 min. 500 ul of the supernatant was taken and directly injected into a GC-FID. 3 samples were analysed for each reaction time at each gastro-intestinal compartment.
Additional experiments were performed where sn-2 monopalmitin was replaced Lysophosphotidilcholine (LysoPC). The effect of LysoPC on fat gastric digestion were studied.

[4] = Pendant drop interfacial tension at buffer/decane interface; assay type: physicochemical
Description: The interfacial tension of pure Tricaprylin (free of any residues of polar lipids), should remain above 30 mN/m. Therefore, a more interfacial active molecule (like monocaprylin), has the capacity to exclude the triglyceride from the interface.

Compound | kinetics of nitrophenol formation from p-nitrophenylpalmitate [1] | kinetics of lipolytic caprylic acid formation from tricaprylin [2] | further results
CCCCCCCC(=O)OCC(O)CO (centres unmarked) [Sn1 M8] | quite similar to the observations made in the reference system | – | –
CCCCCCCCCCCC(=O)OCC(O)CO (centres unmarked) [Sn1 M12] | quite similar to the observations made in the reference system | – | –
CCCCCCCCCCCCCCCC(=O)OCC(O)CO (centres unmarked) [Sn1-M16] | quite similar to the observations made in the reference system | – | –
CCCCCCCC(=O)OC(CO)CO [Sn2-M8] | significant reduction | reduced | –
CCCCCCCCCCCC(=O)OC(CO)CO [Sn2-M12] | significant reduction | reduced | –
CCCCCCCCCCCCCCCC(=O)OC(CO)CO [Sn2-M16, Sn-2 Monopalmitin] | significant reduction | reduced | Caprylic acid (C8) detected after passing through the ileum and jejunum ([3]; 8 ml Tricaprylin containing 2.0 g surfactant, phosphate buffer pH 5.5, starch emulsifier, vs reference emulsion without surfactant, GC-FID, FIG. 2): almost no caprylic acid is detected; caprylic acid content in the lumen of the stomach, duodenum, jejunum and in the efflux ([3]; compared with the ileum/jejunum result (almost no caprylic acid), FIGS. 3, 4 and 5): A similar result is obtained
CCCCCCCCCCCCCCCCCCCC(=O)OC(CO)CO [monoarachidin, Sn-2 monoarachidin] | – | – | interfacial tension between the buffer and the decane solution ([4]; as a function of titrated (added) surfactant, FIG. 8): induces a decrease of the measured interfacial tension
CCCCCCCC(=O)OCC(O)CO (centres unmarked) [monocaprylin] | – | – | interfacial activity compared with caprylic acid (C8) and dicaprylin (DC8) ([4]; buffer/decane interface, FIG. 9): considerably more interfacially active
Lysophosphotidilcholine [LysoPC] | – | – | gastric lipolysis of triglycerides ([3]; sn-2 monopalmitin replaced by LysoPC, lumen of stomach, FIG. 3): considerable effect in decreasing gastric lipolysis
